# Experimental data: article PMC9663589, “Anti-tumor effects of P-LPK-CPT, a peptide-camptothecin conjugate, in colorectal cancer” (Communications Biology, 2022)
# Entries after “also recorded” stand apart in the source; their conditions may differ. Where two headings read alike, the source gives them in different places. No end group written: not given here.
# B1: P-LPK peptide (peptide)
# peptide: LPKTVSSDMSLN
# notes: twelve-residue peptide selected from an M13 phage-display peptide library on CRC cells; Unlabelled peptide, analyte in the SPR experiment; source: synthetic peptide
# What was measured:
# recombinant SLC1A5 [1] = molecular target: T1, recombinant SLC1A5 (Homo sapiens, UniProt Q15758); assay: Surface plasmon resonance, Biacore T200; assay type: binding; conditions: Biacore T200, CM5 chip, peptide 25–400 μM, 1×PBS with 5% DMSO, 0.05% Tween 20, pH 7.4; read-out: KD (SPR)
# T1 sequence (Q15758 1-541): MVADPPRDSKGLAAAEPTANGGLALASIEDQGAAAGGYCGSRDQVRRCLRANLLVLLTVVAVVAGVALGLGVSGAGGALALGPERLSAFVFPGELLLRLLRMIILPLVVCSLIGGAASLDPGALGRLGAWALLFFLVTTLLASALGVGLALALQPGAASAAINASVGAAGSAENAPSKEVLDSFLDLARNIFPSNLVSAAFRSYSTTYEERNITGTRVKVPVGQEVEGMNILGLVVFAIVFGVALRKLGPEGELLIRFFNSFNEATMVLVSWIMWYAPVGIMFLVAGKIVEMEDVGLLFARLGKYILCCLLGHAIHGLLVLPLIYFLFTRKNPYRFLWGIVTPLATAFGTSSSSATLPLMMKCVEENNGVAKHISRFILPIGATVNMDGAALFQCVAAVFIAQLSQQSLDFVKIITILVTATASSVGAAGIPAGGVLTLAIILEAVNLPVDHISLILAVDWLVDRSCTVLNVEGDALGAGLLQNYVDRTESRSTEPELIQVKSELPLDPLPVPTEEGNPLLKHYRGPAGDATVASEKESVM
# Experimental: A surface plasmon resonance-based method using the Biacore T200 platform was developed to detect the binding of peptide (25–400 μM) to recombinant SLC1A5. The sensor chip CM5, 1 × PBS (2 mM KH2PO4, 10 mM Na2HPO4, 137 mM NaCl, 2.7 mM KCl) with 5% DMSO, 0.05% Tween 20 buffer (pH 7.4), and the amine coupling kit (which includes EDC, NHS, and ethanolamine reagents) were all obtained from GE Healthcare. The sensor chip CM5 was activated using EDC and NHS reagents, according to the standard procedure for amine coupling. 20 μg/ml SLC1A5 (about 10 μg proteins in 0.5 ml 10 mM Sodium Acetate buffer) was then covalently immobilized to the chip surface CM5 under 10 mM Sodium Acetate (pH 4.5) buffer. The resulting differences in resonance units (RU) were about 4000 RU. After de-activation by ethanolamine and washing with 1×PBS with 5% DMSO, 0.05% Tween 20 buffer (pH 7.4), the prepared sensor chip was applied to Biacore T200 for the binding assay. 1×PBS with 5% DMSO, 0.05% Tween 20 buffer (pH 7.4) was used as running buffer. A one-minute injection of a solution of 10 mM Glycine-HCl, pH 3.0 was used to regenerate the chip surface.
# HCT116 cells [2] = assay: FITC-peptide binding, confocal fluorescence intensity; assay type: cell-based, human; conditions: FITC labeled, immunofluorescence
# Experimental: NCM460, Colo320HSR, HCT116, LoVo, HT29 and SW480 cells were respectively incubated with FITC-labeled P-LPK (Random peptide P-CON) peptides for 2 h at 37 °C and washed with PBS for three times. The cells were fixed with 4% paraformaldehyde for 30 min at room temperature, and then 4,6-diamidino-2-phenylindole (DAPI) was used for nucleic acid stain. A laser scanning confocal microscope was used to visualize the cells. The fluorescence intensity was analyzed using the Image-Pro Plus 6.0 software. For cell localization experiment, 20 μg/ml rhodamine-labeled peptides were incubated with NCM460 and HCT116 for 2 h, and then washed with PBS for three times. After that, the cell membrane was stained with a blue cell membrane probe (Thermo Fisher Scientific, Cat. No. W11263). The binding of Rhodamine-P-LPK to cells and their localization in cells was observed under a confocal microscope.
# [3] = system: patient-derived CRC xenograft; assay: CRC patient-derived xenograft (PDX) therapeutic evaluation; assay type: in vivo, human xenograft in mice; conditions: HE staining
# intestine and liver = assay: Organ histology (Supplementary Fig. 6); assay type: in vivo, mouse
# [4] = system: Cleaved caspase 3 in colon tissues; assay: Cleaved caspase 3 immunofluorescence in colon tissues (GI toxicity); assay type: in vivo, mouse; conditions: PDX mice, CPT eq. 3 mg/kg iv twice a week, colon tissue
# NCM460 cells = assay: EdU incorporation assay (DNA synthesis); assay type: cell-based, human
# Experimental: (§1) 96-well plates were seeded at 3000 cells per well and exposed to different treatments. 50 μM EdU labeling medium (RiboBio) was added and incubated for 2 h at 37 °C. The cells were then fixed with 4% […] for 10 min. After being washed with PBS, cells were stained with anti-EdU working solution for 30 min and stained with Hoechst33342 for 10 min. Cells were observed using fluorescent microscopy. The percentage of EdU-positive cells was calculated from five random fields in three wells.
# HCT116 cells [5] = assay: EdU incorporation assay (DNA synthesis); assay type: cell-based, human
# Experimental: as §1
# LoVo cells = assay: EdU incorporation assay (DNA synthesis); assay type: cell-based, human
# Experimental: as §1
# HCT116 tumors [6] = assay: HCT116 xenograft therapeutic evaluation; conditions: CPT 5 mg/kg iv twice a week
# Experimental: Female BALB/c nude mice (4–6 weeks with weights of 18–22 g) were obtained from Shanghai Super-B&K Laboratory Animal Corp. Ltd. (Shanghai, China) and kept in specific pathogen free, temperature-controlled isolation. All animal studies were conducted in accordance with the principles and procedures outlined in the Guide for the Care and Use of Laboratory Animals and were approved by Ethics committee. To generate the HCT116 and U87 tumor model, about 1 × 10^6 tumor cells were subcutaneously injected into the right front flank of 4 weeks old athymic nude mice.
# The HCT116 tumor-bearing mice were randomly divided into 4 groups (n = 7 for each group). […] The tumors were measured by a vernier caliper twice a week. The weights of the mice were recorded. Then, the mice were sacrificed at the 28th day. The tumors were dissected and weighted. The tumor volumes were calculated to evaluate the therapeutic efficacy.
# HCT116 cells [7] = assay: Endocytosis inhibition assay (FITC-P-LPK internalization); assay type: cell-based, human; conditions: 10 µM, 30 min pre-treatment, then FITC-P-LPK 2 h; NC vs CPZ p = 0.0001
# Experimental: Fig. 6 P-LPK bound to SLC1A5 and entered CRC cells through endocytosis. a, b Western blotting analysis of SLC1A5 in NCM460, HCT116, LoVo, SW480, HT29 and Colo320HSR cells. After knocking down SLC1A5 in HCT116 and HT29, the binding intensity of FITC-P-LPK to cells was observed by confocal microscopy. Bar, 10 μm. c, d Effects of different endocytosis inhibitors on the internalization of FITC-P-LPK. HCT116 cells were pre-treated with 10 µM chlorpromazine, 50 μM methyl-β-cyclodextrin, 20 µM Amiloride hydrochloride for 30 min at 37 °C. Subsequently, the cells were incubated with FITC-P-LPK for 2 h. Then the fluorescence intensity was observed by confocal microscopy and detected using a multi-well plate reader (n = 5, means ± SD, NC vs CPZ, p = 0.0001; NC vs MβCD, p = 0.9069; NC vs EIPA, p = 0.9812) (****p < 0.0001). Bar, 10 μm. e The competition experiment with SLC1A5 substrates glutamine. FITC-P-LPK was incubated with increasing concentrations (0–32 mM) of glutamine in HCT116 cells at 37 °C for 2 h. The fluorescence intensity was measured in a multi-well plate reader (n = 5, means ± SD).
# Chlorpromazine (CPZ), amiloride (AMI), and methyl-β-cyclodextrin (MCD) were purchased from MedChem Express. […] Then the fluorescence intensity was detected using a multi-well plate reader (BioTek synergy4) and observed by confocal laser scanning microscopy.
# in vivo [8] = assay: in vivo; parameters: species or system human xenograft in BALB/c nude mice; conditions: female, BALB/c nude, mouse, iv, 3.7 MBq, total radioactivity, T/NT ratio
# Experimental: (§2) To obtain ^68Ga, 0.1 M HCl was used to elute a ^68Ge-^68Ga generator. The radioactivity of eluate was monitored. The radioactive elution peak was collected for ^68Ga radiolabeling experiment. An aliquot of 150 μg of compound P-LPK or P-CON was put in a glass vial and dissolved with 0.2 M sodium acetate/acetic acid buffer, pH 3.8. Then ^68GaCl3 tracer was added, and the pH was adjusted to fall in a range of 3.5~4 with 0.1 M NaOH. The solution was stored at room temperature for 0.5 h. The radiochemical purities of ^68Ga-P-LPK and ^68Ga-P-CON were measured with thin-layer chromatography (TLC), using silica gel-impregnated glass fiber stripe (iTLC SG) and 0.25 M sodium citrate/citric acid buffer as mobile phase. ^68GaCl3 was used as a control.
# (§3) Each U87 and HCT116 tumor-bearing mouse was injected in a tail vein with 3.7 MBq (100 μCi, 0.1 nmol in 100 μl) of ^68Ga-P-LPK or ^68Ga-P-CON under isoflurane anesthesia (n = 4 per group). For static PET, 5-min scans were acquired at 30 min, 60 min, and 120 min after injection. The maximum radioactivity concentrations within a tumor or an organ were obtained from mean pixel values within the multiple regions of interest (ROI) volume.
# HCT116 tumors [9] = assay: in vivo; parameters: species or system human xenograft in BALB/c nude mice; conditions: for T/NT ratio, unblock: female, BALB/c nude, mouse, iv, 3.7 MBq
# Experimental: as §2, §3
# (§4) For the blocking experiment, unlabeled P-LPK was first injected into mice (n = 3 per group), and 3.7 MBq ^68Ga-P-LPK was then injected. Static PET images were acquired at 30 min, 60 min and 120 min post-injection.
# in vivo [10] = assay: in vivo; parameters: species or system human xenograft in BALB/c nude mice; conditions: female, BALB/c nude, mouse, iv, 3.7 MBq, total radioactivity, T/NT ratio; remark: listed apart in the source
# Experimental: as §2, §3, §4
# recombinant SLC1A5 [11] = molecular target: T2, recombinant SLC1A5 (UniProt Q15758 1-541); assay: SPR; Biacore T200; SLC1A5 covalently immobilised by amine coupling on a CM5 chip (about 4000 RU); peptide 25-400 uM as analyte; running buffer 1x PBS with 5% DMSO, 0.05% Tween 20, pH 7.4; conditions: both partners purified
# T2 construct: glutamine transporter solute carrier 1 family member 5 (SLC1A5, ASCT2), recombinant protein; additional methods are in the Supplementary Material; also called solute carrier 1 family member 5; ASCT2
# T2 sequence: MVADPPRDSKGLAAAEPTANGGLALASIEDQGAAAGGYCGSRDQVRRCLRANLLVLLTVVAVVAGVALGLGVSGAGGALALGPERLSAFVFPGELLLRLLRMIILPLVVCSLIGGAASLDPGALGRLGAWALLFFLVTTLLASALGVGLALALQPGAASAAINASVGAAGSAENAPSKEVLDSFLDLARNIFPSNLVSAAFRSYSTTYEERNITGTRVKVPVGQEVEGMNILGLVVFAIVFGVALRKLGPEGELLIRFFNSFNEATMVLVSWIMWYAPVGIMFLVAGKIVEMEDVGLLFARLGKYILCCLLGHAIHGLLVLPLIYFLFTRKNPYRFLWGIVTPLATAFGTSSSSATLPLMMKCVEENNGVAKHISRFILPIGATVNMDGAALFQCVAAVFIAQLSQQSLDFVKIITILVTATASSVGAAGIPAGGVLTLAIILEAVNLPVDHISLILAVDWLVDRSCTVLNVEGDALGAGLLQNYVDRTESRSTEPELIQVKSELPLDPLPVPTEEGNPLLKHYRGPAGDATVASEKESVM
# [12] = relative to DMSO = 1, replicate 1
# [13] = relative to DMSO = 1, replicate 2
# [14] = relative to DMSO = 1, replicate 3
molecule,measurement,setting,value
DLPSRTSALASG [P-CON],Kd,recombinant SLC1A5 [1],126 µM
APATVSSDMSLA [FITC-P-MUT],Fluorescence intensity of mutant peptide bound to cells,HCT116 cells [2],significantly reduced
"CC[C@@]1(O)C(=O)OCc2c1cc1n(c2=O)Cc2cc3ccccc3nc2-1 [CPT, camptothecin]",Tumor histology (cancer cells in tumor tissue),[3],almost maintained its original morphological features
same,Damage to intestine and liver,intestine and liver,significantly increased
same,Antitumor activity / cytotoxicity,CRC cells; 10 nM (CPT equivalent),no obvious toxicity to CRC cells
same,Antitumor activity / cytotoxicity,CRC cells; 100 nM,obvious cytotoxicity effects
same,Quantification of Cleaved caspase 3,"[4]; CPT vs P-LPK-CPT p = 0.0051, replicate 1",24
same,Quantification of Cleaved caspase 3,[4]; replicate 2,11
same,Quantification of Cleaved caspase 3,[4]; replicate 3,14
same,Quantification of Cleaved caspase 3,[4]; replicate 4,10
same,Quantification of Cleaved caspase 3,[4]; replicate 5,13
same,Proportion of cells in the DNA synthesis state,NCM460 cells; [12],1.185
same,Proportion of cells in the DNA synthesis state,NCM460 cells; [13],1.136
same,Proportion of cells in the DNA synthesis state,NCM460 cells; [14],0.9381
same,Proportion of cells in the DNA synthesis state,HCT116 cells [5]; [12],1.278
same,Proportion of cells in the DNA synthesis state,HCT116 cells [5]; [13],0.9932
same,Proportion of cells in the DNA synthesis state,HCT116 cells [5]; [14],0.9243
same,Proportion of cells in the DNA synthesis state,LoVo cells; [12],0.9805
same,Proportion of cells in the DNA synthesis state,LoVo cells; [13],0.8341
same,Proportion of cells in the DNA synthesis state,LoVo cells; [14],1.054
same,Mortality during treatment,HCT116 tumors [6],More than half of the mice; also recorded: more than half of mice treated with CPT died of side effects
"CN(C)CCCN1c2ccccc2Sc2ccc(Cl)cc21 [CPZ, chlorpromazine]",Effect on cellular internalization of FITC-P-LPK,HCT116 cells [7],exhibited the highest inhibitory effect; also recorded: remarkably decreased the cellular internalization of FITC-P-LPK
"LPKTVSSDMSLN [68Ga-P-LPK, metal not drawn]",tissue to tissue ratio at 0.5 h,in vivo [8],1.68
same,tissue to tissue ratio at 1 h,in vivo [8],1.47
same,tissue to tissue ratio at 2 h,in vivo [8],1.28
same,T/NT ratios after blocking,HCT116 tumors [9],significantly reduced
same,T/NT ratios vs 68Ga-P-CON,HCT116 tumors [9],significantly increased
same,Tumor binding after pre-injection with unlabeled P-LPK,HCT116 tumors [9],dramatically attenuated
same,"T/NT ratio, unblock",HCT116 tumors [9]; 0.5 h,0.51
same,"T/NT ratio, unblock",HCT116 tumors [9]; 1 h,2.47
same,tissue to tissue ratio at 0.5 h,in vivo [10],2.85
same,tissue to tissue ratio at 1 h,in vivo [10],2.38
same,tissue to tissue ratio at 2 h,in vivo [10],1.87
same,tissue to tissue ratio at 0.5 h,in vivo [10]; block,0.41
same,tissue to tissue ratio at 1 h,in vivo [10]; block,1.17
same,tissue to tissue ratio at 2 h,in vivo [10]; block,0.79
same,tissue to tissue ratio at 0.5 h,in vivo [10]; unblock,0.82
same,tissue to tissue ratio at 1 h,in vivo [10]; unblock,2.91
same,tissue to tissue ratio at 2 h,in vivo [10]; unblock,2.31
B1,Kd,recombinant SLC1A5 [11],~1.19 µM
